US11129870B2, “Compositions and methods for uncoupling TrkB receptor from PLC gamma 1 for the treatment of epilepsy and anxiety-like disorder” (DUKE UNIVERSITY, priority 2010, dated 2021)
Where no end group is shown, it is not given here. [ ]: non-standard residue; d: D form. pY = N[C@@H](Cc1ccc(OP(=O)(O)O)cc1)C(=O)O

Legend:
TrkB-PLCγ1 binding = target: T1, TrkB-PLCγ1 binding (Mus musculus, UniProt Q62077); test: Co-immunoprecipitation of TrkB and PLCγ1 from hippocampal homogenates after i.v. peptide; type: in vivo; conditions: 10 mg/kg i.v., 3 hr, hippocampus, compared to Scr
T1 construct: The hippocampi were rapidly dissected on ice and homogenized in RIPA buffer; from tissue; host or cells: hippocampus of naïve C57BL/6 mice
T1 sequence (Q62077 1-1302): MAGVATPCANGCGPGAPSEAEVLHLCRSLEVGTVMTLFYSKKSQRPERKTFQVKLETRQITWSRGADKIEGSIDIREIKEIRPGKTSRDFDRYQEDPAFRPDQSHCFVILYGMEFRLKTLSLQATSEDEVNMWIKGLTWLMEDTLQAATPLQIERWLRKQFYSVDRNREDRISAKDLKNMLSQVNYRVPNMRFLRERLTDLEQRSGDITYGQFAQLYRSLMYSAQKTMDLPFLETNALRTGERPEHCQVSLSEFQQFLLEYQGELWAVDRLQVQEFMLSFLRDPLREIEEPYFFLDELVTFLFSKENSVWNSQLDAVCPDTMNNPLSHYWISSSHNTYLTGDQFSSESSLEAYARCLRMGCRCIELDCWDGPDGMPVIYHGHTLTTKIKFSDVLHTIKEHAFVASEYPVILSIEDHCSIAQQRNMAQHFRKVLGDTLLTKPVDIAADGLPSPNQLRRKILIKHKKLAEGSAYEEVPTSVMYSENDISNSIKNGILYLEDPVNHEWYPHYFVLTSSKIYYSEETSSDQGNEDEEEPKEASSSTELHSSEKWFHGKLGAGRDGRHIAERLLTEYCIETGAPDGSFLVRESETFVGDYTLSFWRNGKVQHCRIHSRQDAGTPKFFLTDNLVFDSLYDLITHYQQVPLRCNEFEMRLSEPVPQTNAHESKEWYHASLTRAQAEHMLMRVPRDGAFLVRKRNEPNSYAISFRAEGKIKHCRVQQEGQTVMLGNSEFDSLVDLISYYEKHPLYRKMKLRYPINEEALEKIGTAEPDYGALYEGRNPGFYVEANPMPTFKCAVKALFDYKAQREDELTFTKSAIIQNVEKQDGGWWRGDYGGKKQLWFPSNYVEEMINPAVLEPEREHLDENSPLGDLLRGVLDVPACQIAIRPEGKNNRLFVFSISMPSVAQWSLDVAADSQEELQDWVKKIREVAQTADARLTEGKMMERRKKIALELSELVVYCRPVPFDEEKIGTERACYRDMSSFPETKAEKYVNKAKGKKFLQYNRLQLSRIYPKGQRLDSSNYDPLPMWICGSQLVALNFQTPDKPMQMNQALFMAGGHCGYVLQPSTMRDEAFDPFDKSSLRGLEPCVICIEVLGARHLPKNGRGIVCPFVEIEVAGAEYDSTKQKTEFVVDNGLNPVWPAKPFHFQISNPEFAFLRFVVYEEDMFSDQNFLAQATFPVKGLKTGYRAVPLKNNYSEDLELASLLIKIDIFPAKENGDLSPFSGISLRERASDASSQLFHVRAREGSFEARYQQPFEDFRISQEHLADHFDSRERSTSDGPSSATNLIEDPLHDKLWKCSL
Description: (§1) Animals were anesthetized with pentobarbital (200 mg/kg i.p.) and decapitated, and the head was quickly immersed in liquid nitrogen for 4 s to rapidly cool the brain. The hippocampi were rapidly dissected on ice and homogenized in RIPA buffer, incubated on ice for 15 min, and centrifuged at 200,000×g for 10 min at 4° C. The supernatant was collected and stored at −80° C. until further analysis. TrkB was immunoprecipitated using TrkB antibody (1:1000, Millipore) and the lysates were incubated with 100 μL of protein A-Sepharose beads (Roche) overnight in 4° C. The beads/immune complexes were pelleted in a microcentrifuge and then resuspended in RIPA buffer and this procedure was repeated two additional times before adding 2×SDS PAGE sample buffer and boiled. After SDS PAGE, the gels were probed with TrkB and PLCγ1 antibody (1:1000, Cell signaling). Western blotting was conducted as previously described (He et al., 2010). Cell lysate and hippocampal homogenate were probed with p-PLCγ1 (pY783), PLCγ1, p-Akt (pS473), Akt, p-ERK (p44/p42) and ERK (1:1000, Cell signaling). The immunoreactivity of individual bands on western blots was measured by ImageJ software (National Institutes of Health) and normalized to PLCγ1, Akt or ERK contents. Equivalent protein loading among samples was monitored by β-actin (1:10000; Sigma) levels. […]

Akt = test: p-Akt in hippocampal lysates of naive mice after i.v. peptide; type: in vivo, mouse; conditions: 10 mg/kg i.v., 3 hr
Description: as §1

ERK = test: p-ERK in hippocampal lysates of naive mice after i.v. peptide; type: in vivo, mouse; conditions: 10 mg/kg i.v., 3 hr
Description: as §1

PLCγ1 = test: p-PLCγ1 in brain of naive mice after intravenous peptide (western blot); type: in vivo, mouse
Description: An important issue with respect to usefulness of Tat-pTRKBY816 is whether, following peripheral administration, the peptide can inhibit PLCγ1 activation in the brain in vivo. To test this idea, adult C57/B6 mice underwent tail vein injection of vehicle (normal saline [NS]) or Tat-scrambled-pTrkY816 or Tat-pTrkBY816 (10 mg/kg, 2 mice per group). Animals were sacrificed 3 hours post administration, the hippocampus dissected and homogenate prepared for western blotting. […] These findings support the assertion that the peptide passes through the blood brain barrier and inhibits PLCγ1 activation in vivo.
Animals were anesthetized with pentobarbital (200 mg/kg i.p.) and decapitated, and the head was quickly immersed in liquid nitrogen for 4 s to rapidly cool the brain. The hippocampi were rapidly dissected on ice and homogenized in RIPA buffer, incubated on ice for 15 min, and centrifuged at 200,000×g for 10 min at 4° C. The supernatant was collected and stored at −80° C. until further analysis. […] The immunoreactivity of individual bands on western blots was measured by ImageJ software (National Institutes of Health) and normalized to PLCγ1, Akt or ERK contents. Equivalent protein loading among samples was monitored by β-actin (1:10000; Sigma) levels. […]

Substance: YGRKKRRQRRR-LQNLAKASPVpYLDI (YGRKKRRQRRRLQNLAKASPV[pY]LDI) [pY816]
- co-immunoprecipitation of TrkB and PLCγ1 (TrkB-PLCγ1 binding): inhibited the co-immunoprecipitation of TrkB and PLCγ1
- p-Akt in hippocampal lysates (Akt): neither p-Akt nor p-ERK was affected
- p-ERK in hippocampal lysates (ERK): neither p-Akt nor p-ERK was affected
- reduction of p-PLCγ1 (pY783) immunoreactivity (PLCγ1; 10 mg/kg i.v., 3 hr, hippocampal lysates, in comparison to Scr): ~50%
- phospho-PLCγ1 in brain homogenate (PLCγ1; 10 mg/kg tail vein, 3 hours post administration, vs saline or scrambled peptide): reduced the phosphor-PLCγ1
